Here are results for 13 molecules from ChEMBL document CHEMBL4020764, “Phytochemical and cytotoxic studies on the leaves of Calotropis gigantea” (Bioorg Med Chem Lett, 2017).

The term IC50 denotes the concentration that gives 50% inhibition. As a reminder, the GI50 is the concentration that inhibits growth by half.

The test system of experiment [1] is PANC-1. The experiment is described as follows: Cytotoxicity against human PANC1 cells after 72 hrs by WST8 assay. The class given is functional, cell-based. To be noted: PANC-1, 72 h.
The subject of experiment [2] is PANC-1. The experiment is described as follows: Cytotoxicity against human PANC1 cells at >25 uM measured after 72 hrs by WST8 assay. In kind it is functional, cell-based. A general note: Tetrazolium assays rely on reduction of a dye to a coloured formazan, in cell work by metabolically active cells.
Experiment [3] concerns PANC-1. The experiment is described as follows: Growth inhibition of human PANC1 cells after 72 hrs by WST8 assay. The class given is functional. To be noted: PANC-1, 72 h.
The test system of experiment [4] is PANC-1. Briefly: Inhibition of colony formation in human PANC1 cells after 10 days by crystal violet staining based assay. The class given is functional, cell-based.
Experiment [5] concerns PANC-1. Briefly: Induction of morphological changes in human PANC1 cells assessed as increase in EB positive cells at 5 to 10 uM after 72 hrs by ethidium bromide/acridine orange staining based fluorescent microscopic analysis. In kind it is functional, cell-based.
Experiment [6] concerns PANC-1. Briefly: Induction of morphological changes in human PANC1 cells assessed as disruption of cellular organelles at 5 to 10 uM after 72 hrs by ethidium bromide/acridine orange staining based fluorescent microscopic analysis. The class given is functional, cell-based.
Experiment [7] relates to PANC-1. Briefly: Induction of morphological changes in human PANC1 cells assessed as cell rounding at 5 to 10 uM after 72 hrs by ethidium bromide/acridine orange staining based fluorescent microscopic analysis. In kind it is functional.

The source made the active and inactive calls. The rule behind the calls is not given here.

For `CC(=O)[C@]1(O)CC[C@]2(O)[C@@H]3CC=C4C[C@@H](O)CC[C@]4(C)[C@H]3C[C@@H](OC(=O)c3ccccc3)[C@]12C`, in experiment [1], half-maximal inhibition (IC50) required 18.7 µM.
`COc1cc([C@H]2OC[C@H]3[C@@H]2CO[C@@H]3c2cc(OC)c(O)c(OC)c2)cc(OC)c1O` [SYRINGARESINOL] came in with an IC50 in experiment [1] of 61.1 µM.
For the molecule `O=C(/C=C/c1ccc(O)cc1)c1ccc(O)cc1O` [ISOLIQUIRITIGENIN], in experiment [1], half-maximal inhibition (IC50) required 3.3 µM.
The same measure, in the same setting: then `O=Cc1ccc(CO)o1` [AES-103], with above 100 µM; and `COc1cc([C@H]2OC[C@H]3[C@@H]2CO[C@@H]3c2ccc(O)c(OC)c2)ccc1O`, with 37.5 µM.
As to `Nc1ccn([C@@H]2O[C@H](CO)[C@@H](O)C2(F)F)c(=O)n1` [GEMCITABINE], the result in experiment [2] was Active. Further, the GI50 in experiment [3] came to 5.8 µM.
Consider `CO[C@H]1C[C@@H](OCc2ccc(C=O)o2)O[C@@H]1[C@@H](C)O`, for which, in experiment [1], the IC50 is above 100 µM.
Take `COc1cc([C@H]2O[C@@H](OC)[C@H]3[C@@H]2CO[C@@H]3c2ccc(O)c(OC)c2)ccc1O`: the inhibition entry in experiment [4] is “Dose-dependent effect”. Further, the result in experiment [5], in experiment [6] and in experiment [7] was Active. Also, in experiment [1], inhibition was half-maximal at 3.7 µM (IC50).
`COc1cc(C(=O)OC[C@H]2O[C@@H](Oc3ccc([C@H]4OC[C@H]5[C@@H]4CO[C@@H]5c4ccc(O)c(OC)c4)cc3OC)[C@H](O)[C@@H](O)[C@@H]2O)ccc1O` showed an IC50 in experiment [1] of 63.4 µM.
As to `CO[C@@H]1C[C@@H](OCc2ccc(C=O)o2)O[C@@H](C)[C@@H]1O`, in experiment [1], the IC50 is above 100 µM.
For the molecule `CC(=O)[C@H]1CC[C@@]2(O)[C@@H]3C=CC4=CC(=O)CC[C@]4(C)[C@H]3CC[C@]12C`, the IC50 in experiment [1] turned out to be 79.3 µM.
The same measure, in the same setting: the value for `CC(=O)[C@H]1CC[C@H]2[C@@H]3C=CC4=CC(=O)CC[C@]4(C)[C@H]3CC[C@]12C` was 40 µM; that for `Cc1ncccc1O` was above 100 µM.
